According to the supplement of paper PMC11208160:

Assay: recombinant barcode read abundance after kanamycin selection (control-corrected) (log10(CPM+1)); higher = more efficient recombination; sequences stand for … in AGTGCAGAGAAAATCGGCCAGTTTTCTCTGCCTGCAGTCCGCATGCCGT…AGATTTATGCAGCGGACTGCCTTTCTCCCAAAGTGATAAACCGGACAGTATCATGGACCGGTTTTCCCGGTAATCCGTATTTGCAAGGTTGGTTTCACT; site = the 11-nt target
Method in brief: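 Recombination efficiency was calculated from barcode counts at recombinant junctions, normalized to counts per million, averaged and corrected by the control. Each value is given as log10(CPM+1). The constructs were Gibson-cloned oligos (promoter, target, barcode, J23119-driven first 104 bridge RNA bases) in a vector with the remaining 73 bp and a T7-inducible recombinase, co-electroporated into E. coli with a donor plasmid and plated in duplicate on chloramphenicol/ampicillin LB agar (control) or chloramphenicol/ampicillin/kanamycin with 0.1 mM IPTG.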
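Note: IS621 recombinase and bridge RNA in Escherichia coli cells.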

Sequence	recombinant barcode read abundance (log10)
TCAGGTACTTGGGTTCTAACCTGTTGCCT (site ACAGGTACTAG)	0.0983
TCAGGTACTTGGGTTCTAACCTGTTGCCT (site CCAGGTACTAG)	0.0713
TCAGGTACTTGGGTTCTAACCTGTTGCCT (site GCAGGTACTAG)	0.0652
TCAGGTACTTGGGTTCTAACCTGTTGCCT (site TCAGGTACTAG)	0.163
TCAGTATCTTGGGTTCTAACCTGTTGCCT (site TCAGAATCTAG)	0.145
TCAGTATCTTGGGTTCTAACCTGTTGCCT (site TCAGCATCTAG)	0.533
TCAGTATCTTGGGTTCTAACCTGTTGCCT (site TCAGGATCTAG)	0.107
TCAGTATCTTGGGTTCTAACCTGTTGCCT (site TCAGTATCTAG)	1.4
TCATCTCCTTGGGTTCTAACCTGTTGCCT (site ACATCTCCTAG)	0.188
TCATCTCCTTGGGTTCTAACCTGTTGCCT (site CCATCTCCTAG)	0.0972
TCATCTCCTTGGGTTCTAACCTGTTGCCT (site GCATCTCCTAG)	0.0477
TCATCTCCTTGGGTTCTAACCTGTTGCCT (site TCATCTCCTAG)	0.092
TCATGGGCTTGGGTTCTAACCTGTTGCAG (site AGGGTTCCTAA)	0.457
TCATGGGCTTGGGTTCTAACCTGTTGCAG (site TCATGGGCTCT)	1.92
TCCAAAGCTTGGGTTCTAACCTGTTGCTA (site TCCAAAGCTTA)	0.249
TCCAAAGCTTGGGTTCTAACCTGTTGCTA (site TCCCAAGCTTA)	0.141
TCCAAAGCTTGGGTTCTAACCTGTTGCTA (site TCCGAAGCTTA)	0.294
TCCAAAGCTTGGGTTCTAACCTGTTGCTA (site TCCTAAGCTTA)	0.251
TCCAACACTTGGGTTCTAACCTGTTGCGG (site TCCAAACCTCC)	0.00935
TCCAACACTTGGGTTCTAACCTGTTGCGG (site TCCAACACTCC)	1.31
TCCAACCCTTGGGTTCTAACCTGTTGCGG (site TCAAACCCTCC)	0.0107
TCCAACCCTTGGGTTCTAACCTGTTGCGG (site TCCAACCCTCC)	1.78

Sequence	recombinant barcode read abundance (log10)
TCCAACCCTTGGGTTCTAACCTGTTGCGG (site TCGAACCCTCC)	0.108
TCCAACCCTTGGGTTCTAACCTGTTGCGG (site TCTAACCCTCC)	0.3
TCCAAGACTTGGGTTCTAACCTGTTGCAG (site ACCAAGACTCG)	0.00865
TCCAAGACTTGGGTTCTAACCTGTTGCAG (site TCCAAGACTCT)	1.72
TCCAAGCCTTGGGTTCTAACCTGTTGCAG (site TCCAAACCTCT)	0.694
TCCAAGCCTTGGGTTCTAACCTGTTGCAG (site TCCAACCCTCT)	0.0251
TCCAAGCCTTGGGTTCTAACCTGTTGCAG (site TCCAAGCCTCT)	0.747
TCCAAGCCTTGGGTTCTAACCTGTTGCAG (site TCCAATCCTCT)	0.39
TCCAATCCTTGGGTTCTAACCTGTTGCAG (site TCCAAACCTCT)	0.114
TCCAATCCTTGGGTTCTAACCTGTTGCAG (site TCCAACCCTCT)	0.0551
TCCAATCCTTGGGTTCTAACCTGTTGCAG (site TCCAAGCCTCT)	0.167
TCCAATCCTTGGGTTCTAACCTGTTGCAG (site TCCAATCCTCT)	0.381
TCCACACCTTGGGTTCTAACCTGTTGCCT (site TCCACAACTAG)	0.122
TCCACACCTTGGGTTCTAACCTGTTGCCT (site TCCACACCTAG)	0.63
TCCACACCTTGGGTTCTAACCTGTTGCCT (site TCCACAGCTAG)	0.0788
TCCACACCTTGGGTTCTAACCTGTTGCCT (site TCCACATCTAG)	0.0345
TCCACAGCTTGGGTTCTAACCTGTTGCCT (site TCCACAACTAG)	0
TCCACAGCTTGGGTTCTAACCTGTTGCCT (site TCCACACCTAG)	0.212
TCCACAGCTTGGGTTCTAACCTGTTGCCT (site TCCACAGCTAG)	0.784
TCCACAGCTTGGGTTCTAACCTGTTGCCT (site TCCACATCTAG)	0
TCCAGCACTTGGGTTCTAACCTGTTGCCT (site TCCAGCACTAG)	0.412
TCCAGCACTTGGGTTCTAACCTGTTGCCT (site TCTGGCACTAG)	0

Sequence	recombinant barcode read abundance (log10)
TCCAGTACTTGGGTTCTAACCTGTTGCTT (site TCCAGTACTAA)	0.0786
TCCAGTACTTGGGTTCTAACCTGTTGCTT (site TCCGGTACTAA)	0.0788
TCCATAACTTGGGTTCTAACCTGTTGCCT (site GGGGCGTCTCA)	0.0285
TCCATAACTTGGGTTCTAACCTGTTGCCT (site TCCATAACTAG)	0.14
TCCATCCCTTGGGTTCTAACCTGTTGCCT (site TCAATCCCTAG)	0.00792
TCCATCCCTTGGGTTCTAACCTGTTGCCT (site TCCATCCCTAG)	0.613
TCCATCCCTTGGGTTCTAACCTGTTGCCT (site TCGATCCCTAG)	0.0154
TCCATCCCTTGGGTTCTAACCTGTTGCCT (site TCTATCCCTAG)	0.116
TCCCACTCTTGGGTTCTAACCTGTTGCCT (site TCACACTCTAG)	0.158
TCCCACTCTTGGGTTCTAACCTGTTGCCT (site TCCCACTCTAG)	1.56
TCCCACTCTTGGGTTCTAACCTGTTGCCT (site TCGCACTCTAG)	0.0564
TCCCACTCTTGGGTTCTAACCTGTTGCCT (site TCTCACTCTAG)	0.0682
TCCCAGTCTTGGGTTCTAACCTGTTGCTG (site TCCCAGTCTCA)	0.635
TCCCAGTCTTGGGTTCTAACCTGTTGCTG (site TCTCAGTCTCC)	0.0317
TCCCATACTTGGGTTCTAACCTGTTGCAT (site AGTGGACCTGG)	0.2
TCCCATACTTGGGTTCTAACCTGTTGCAT (site TCCCATACTAT)	0.982
TCCCATTCTTGGGTTCTAACCTGTTGCCT (site TCCCATACTAG)	0.197
TCCCATTCTTGGGTTCTAACCTGTTGCCT (site TCCCATCCTAG)	0.03
TCCCATTCTTGGGTTCTAACCTGTTGCCT (site TCCCATGCTAG)	0.0488
TCCCATTCTTGGGTTCTAACCTGTTGCCT (site TCCCATTCTAG)	0.115
TCCCGAGCTTGGGTTCTAACCTGTTGCCT (site TCCCGAACTAG)	0.435
TCCCGAGCTTGGGTTCTAACCTGTTGCCT (site TCCCGACCTAG)	0

Sequence	recombinant barcode read abundance (log10)
TCCCGAGCTTGGGTTCTAACCTGTTGCCT (site TCCCGAGCTAG)	1.55
TCCCGAGCTTGGGTTCTAACCTGTTGCCT (site TCCCGATCTAG)	0.119
TCCGAAACTTGGGTTCTAACCTGTTGCAT (site TCCGAAACTAT)	1.15
TCCGAAACTTGGGTTCTAACCTGTTGCAT (site TCTGAAACTAG)	0.0197
TCCGAGCCTTGGGTTCTAACCTGTTGCAT (site TCCGAGCCTAC)	0.228
TCCGAGCCTTGGGTTCTAACCTGTTGCAT (site TCCGAGCCTAT)	1.98
TCCGCTCCTTGGGTTCTAACCTGTTGCCT (site TCCGCTACTAG)	0.177
TCCGCTCCTTGGGTTCTAACCTGTTGCCT (site TCCGCTCCTAG)	0.323
TCCGCTCCTTGGGTTCTAACCTGTTGCCT (site TCCGCTGCTAG)	0.215
TCCGCTCCTTGGGTTCTAACCTGTTGCCT (site TCCGCTTCTAG)	0.0907
TCCGTACCTTGGGTTCTAACCTGTTGCCG (site TCCGTACCTCG)	0.814
TCCGTACCTTGGGTTCTAACCTGTTGCCG (site TCCGTCCCTCA)	0.0904
TCCGTCTCTTGGGTTCTAACCTGTTGCCA (site TCCGTCTCTCG)	0.233
TCCGTCTCTTGGGTTCTAACCTGTTGCCA (site TCCGTCTCTTG)	0.692
TCCGTCTCTTGGGTTCTAACCTGTTGCCG (site TCCGTCTCTCG)	1.13
TCCGTCTCTTGGGTTCTAACCTGTTGCCG (site TCCGTCTCTTG)	0.0281
TCCTAGTCTTGGGTTCTAACCTGTTGCCA (site GCCTAGTCTTG)	0.405
TCCTAGTCTTGGGTTCTAACCTGTTGCCA (site TCCTAGTCTTG)	0.137
TCCTTAGCTTGGGTTCTAACCTGTTGCCT (site TCATTCGCTAG)	0.0127
TCCTTAGCTTGGGTTCTAACCTGTTGCCT (site TCCTTAGCTAG)	0.579
